Results from patent US9238639B2, “Aromatic ring compound” (TAKEDA PHARMACEUTICAL COMPANY LIMITED, priority 2012, dated 2016).

These compounds were tested against T1, human GOAT (Homo sapiens, UniProt Q96T53) (assay: GOAT enzyme activity measurement by HTRF method (human GOAT-expressing microsome fraction)). Settings: 10 μM compound; human GOAT-expressing Sf9 microsome fraction; octanoyl-CoA and Ghrelin-biotin substrates; 0% control without compound, 100% control without enzyme.
T1 construct: made in house; host or cells: Sf9 insect cells (BacToBac baculovirus, pFastBac1 vector); microsome fraction
T1 sequence (Q96T53 1-435): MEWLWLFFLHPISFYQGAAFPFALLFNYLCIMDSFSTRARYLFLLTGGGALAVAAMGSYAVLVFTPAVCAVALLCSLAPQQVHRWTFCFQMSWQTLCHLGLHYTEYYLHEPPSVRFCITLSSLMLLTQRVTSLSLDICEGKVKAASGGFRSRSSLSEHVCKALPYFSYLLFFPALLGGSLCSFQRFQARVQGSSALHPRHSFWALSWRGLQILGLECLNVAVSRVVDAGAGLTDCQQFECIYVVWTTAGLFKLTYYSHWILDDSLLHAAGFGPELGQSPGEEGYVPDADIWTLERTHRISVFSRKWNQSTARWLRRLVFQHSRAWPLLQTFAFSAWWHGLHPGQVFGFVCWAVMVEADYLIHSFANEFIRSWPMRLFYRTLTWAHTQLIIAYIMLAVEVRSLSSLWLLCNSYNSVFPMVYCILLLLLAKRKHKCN
Format: biochemical
Method: Human GOAT (Accession NO: EU518495) cDNA was amplified by PCR including reaction of (1) 98° C., 1 min, (2) 35 repeats of 98° C., 10 sec·65° C., 15 sec·72° C., 80 sec, and (3) 72° C., 5 min, using human stomach cDNA library (Takara Bio) as a template and Pyrobest DNA Polymerase (Takara Bio). The amplified fragment was treated with restriction enzymes, inserted into Stu I/Not I sites of pFastBacl (Invitrogen) by using Ligation High (TOYOBO), and transfected into ECOS JM109 (Nippon Gene) to construct pFB/hGOAT.
Production of Baculovirus and Preparation of Insect Cell Microsome Fraction
For preparation of baculovirus from pFB/hGOAT, BacToBac baculovirus expression system (Invitrogen) was used. The virus titer was measured by Real-Time PCR using SYBR Green (Takara Bio). Sf9 cells were infected with the obtained baculovirus at Multiplicity of Infection (MOI)=0.2, and cultured for 70 hr. The Sf9 cells were recovered, suspended in a suspension buffer (TBS (0.3 M NaCl), 1 mM DTT, 1 mM EDTA, Complete (Roche) (1 tablet/50 mL)), and the cells were disrupted twice on ice at 20000 rpm, 30 sec using a polytron homogenizer. The cell disruption solution was centrifuged at 1000 rpm for 10 min at 4° C., the supernatant was further ultracentrifuged at 40000 rpm for 30 min at 4° C. and the precipitate was recovered. The obtained precipitate was suspended in the suspension buffer used above to give a human GOAT-expressing microsome fraction. The protein level was measured using BCA Protein assay Reagent (PIERCE).
Enzyme Activity Measurement by HTRF Method
A compound solution (2 μL) diluted with an assay buffer containing 50 mM Tris-HCl (pH 7.5), 0.5% TWEEN20, and Complete to 15% DMSO and 90 μg/mL human GOAT-expressing microsome fraction (2 μL) were incubated at room temperature for 20 min, after which a substrate mixed solution (2 μL) containing 30 μM octanoyl-CoA (CHEM-IMPLEX) and 3 μM Ghrelin-biotin ([…]epsilon aminocaproic acid-biotin (Greiner Coutom synthesis)) was added to 384 white small volume plate (Greiner). After reaction for 20 min, 2 μL of citrate buffer (pH3) (mixed solution of 0.1 M citric acid (39.8 mL) and 0.2 M Na2HPO4 (10.2 mL)), 2 μL of 25 nM anti-active ghrelin antibody (produced in mouse), 5 μL of Eu(K)-Anti Mouse IgG Pab (Cis Bio) 100-fold diluted with HTRF detection buffer (Cis Bio) and 5 μL of streptavidin-Xlent (Cis Bio) 66.6-fold diluted with HTRF detection buffer (Cis Bio) were added. After incubation at room temperature for 1 hr or longer, the fluorescence values at 620 nm and 665 nm were measured by Envision (PerkinElmer). The data was calculated [(665 nm signal/620 nm signal)×10^4], and the inhibitory activity against human GOAT was shown by the data where 0% control was without compound, and 100% control was without enzyme.

| inhibition at 10 µM [%] | SMILES |
| --- | --- |
| 94.7 | COC(=O)Cc1csc2cc(OCc3cc(C)nn3C)cc(C)c12 [Example 7, Methyl(6-((1,3-dimethyl-1H-pyrazol-5-yl)methoxy)-4-methyl-1-benzothiophen-3-yl)acetate] |
| 95.6 | Cc1cc(COc2cc(C)c3c(CC(=O)O)csc3c2)n(C)n1 [Example 8, (6-((1,3-Dimethyl-1H-pyrazol-5-yl)methoxy)-4-methyl-1-benzothiophen-3-yl)acetic acid] |
| 104 | Cc1cc(OCc2cc(C(F)(F)F)nn2C)cc2scc(CC(=O)O)c12 [Example 12, (4-Methyl-6-((1-methyl-3-(trifluoromethyl)-1H-pyrazol-5-yl)methoxy)-1-benzothiophen-3-yl)acetic acid] |
| 107 | Cc1ccc(COc2cc(Cl)c3c(CC(=O)O)csc3c2)c(C)n1 [Example 14, (4-Chloro-6-((2,6-dimethylpyridin-3-yl)methoxy)-1-benzothiophen-3-yl)acetic acid] |
| 101 | Cc1nc(C(F)(F)F)ccc1COc1cc(Cl)c2c(CC(=O)O)csc2c1 [Example 16, (4-Chloro-6-((2-methyl-6-(trifluoromethyl)pyridin-3-yl)methoxy)-1-benzothiophen-3-yl)acetic acid] |
| 100 | COC(=O)Cc1csc2cc(OCc3cc(C(F)(F)F)nn3C)cc(Cl)c12 [Example 21, Methyl(4-chloro-6-((1-methyl-3-(trifluoromethyl)-1H-pyrazol-5-yl)methoxy)-1-benzothiophen-3-yl)acetate] |
| 105 | Cn1nc(C(F)(F)F)cc1COc1cc(Cl)c2c(CC(=O)O)csc2c1 [Example 22, (4-Chloro-6-((1-methyl-3-(trifluoromethyl)-1H-pyrazol-5-yl)methoxy)-1-benzothiophen-3-yl)acetic acid] |
| 97.4 | COC(=O)Cc1csc2cc(OCc3cc(C)nn3C)cc(Cl)c12 [Example 25, Methyl(4-chloro-6-((1,3-dimethyl-1H-pyrazol-5-yl)methoxy)-1-benzothiophen-3-yl)acetate] |
| 105 | Cc1cc(COc2cc(Cl)c3c(CC(=O)O)csc3c2)n(C)n1 [Example 26, (4-Chloro-6-((1,3-dimethyl-1H-pyrazol-5-yl)methoxy)-1-benzothiophen-3-yl)acetic acid] |

More lines, now with the values behind:

| SMILES | inhibition at 10 µM [%] |
| --- | --- |
| CCOC(=O)Cc1csc2cc(OCc3ccc(Cl)cc3Cl)ccc12 [Example 1, Ethyl(6-((2,4-dichlorobenzyl)oxy)-1-benzothiophen-3-yl)acetate] | 69 |
| O=C(O)Cc1csc2cc(OCc3ccc(Cl)cc3Cl)ccc12 [Example 2, (6-((2,4-Dichlorobenzyl)oxy)-1-benzothiophen-3-yl)acetic acid] | 99.2 |
| CCOC(=O)Cc1csc2cc(OCc3ccc(C)nc3C)ccc12 [Example 3, Ethyl(6-((2,6-dimethylpyridin-3-yl)methoxy)-1-benzothiophen-3-yl)acetate] | 92.8 |
| Cc1ccc(COc2ccc3c(CC(=O)O)csc3c2)c(C)n1 [Example 4, (6-((2,6-Dimethylpyridin-3-yl)methoxy)-1-benzothiophen-3-yl)acetic acid] | 99 |
| COC(=O)Cc1csc2cc(OCc3ccc(Cl)cc3Cl)cc(C)c12 [Example 5, Methyl(6-((2,4-dichlorobenzyl)oxy)-4-methyl-1-benzothiophen-3-yl)acetate] | 84.4 |
| Cc1cc(OCc2ccc(Cl)cc2Cl)cc2scc(CC(=O)O)c12 [Example 6, (6-((2,4-Dichlorobenzyl)oxy)-4-methyl-1-benzothiophen-3-yl)acetic acid] | 103 |
| COC(=O)Cc1csc2cc(OCc3ccc(C(F)(F)F)nc3C)cc(C)c12 [Example 9, Methyl(4-methyl-6-((2-methyl-6-(trifluoromethyl)pyridin-3-yl)methoxy)-1-benzothiophen-3-yl)acetate] | 93.8 |
| Cc1nc(C(F)(F)F)ccc1COc1cc(C)c2c(CC(=O)O)csc2c1 [Example 10, (4-Methyl-6-((2-methyl-6-(trifluoromethyl)pyridin-3-yl)methoxy)-1-benzothiophen-3-yl)acetic acid] | 99.2 |
| COC(=O)Cc1csc2cc(OCc3cc(C(F)(F)F)nn3C)cc(C)c12 [Example 11, Methyl(4-methyl-6-((1-methyl-3-(trifluoromethyl)-1H-pyrazol-5-yl)methoxy)-1-benzothiophen-3-yl)acetate] | 95.2 |
| COC(=O)Cc1csc2cc(OCc3ccc(C)nc3C)cc(Cl)c12 [Example 13, Methyl(4-chloro-6-((2,6-dimethylpyridin-3-yl)methoxy)-1-benzothiophen-3-yl)acetate] | 96.5 |
| COC(=O)Cc1csc2cc(OCc3ccc(C(F)(F)F)nc3C)cc(Cl)c12 [Example 15, Methyl(4-chloro-6-((2-methyl-6-(trifluoromethyl)pyridin-3-yl)methoxy)-1-benzothiophen-3-yl)acetate] | 91.6 |
| CCOC(=O)Cc1csc2cc(OCc3cc(C(F)(F)F)nn3C)ccc12 [Example 17, Ethyl(6-((1-methyl-3-(trifluoromethyl)-1H-pyrazol-5-yl)methoxy)-1-benzothiophen-3-yl)acetate] | 88.9 |
| Cn1nc(C(F)(F)F)cc1COc1ccc2c(CC(=O)O)csc2c1 [Example 18, (6-((1-Methyl-3-(trifluoromethyl)-1H-pyrazol-5-yl)methoxy)-1-benzothiophen-3-yl)acetic acid] | 98.2 |
| COC(=O)Cc1csc2c(C)c(OCc3ccc(C(F)(F)F)nc3C)cc(C)c12 [Example 23, Methyl(4,7-dimethyl-6-((2-methyl-6-(trifluoromethyl)pyridin-3-yl)methoxy)-1-benzothiophen-3-yl)acetate] | 62.8 |
| Cc1nc(C(F)(F)F)ccc1COc1cc(C)c2c(CC(=O)O)csc2c1C [Example 24, (4,7-Dimethyl-6-((2-methyl-6-(trifluoromethyl)pyridin-3-yl)methoxy)-1-benzothiophen-3-yl)acetic acid] | 105 |
| COC(=O)Cc1csc2c(Cl)c(OCc3cc(C(F)(F)F)nn3C)cc(Cl)c12 [Example 27, Methyl(4,7-dichloro-6-((1-methyl-3-(trifluoromethyl)-1H-pyrazol-5-yl)methoxy)-1-benzothiophen-3-yl)acetate] | 92.7 |
| Cn1nc(C(F)(F)F)cc1COc1cc(Cl)c2c(CC(=O)O)csc2c1Cl [Example 28, (4,7-Dichloro-6-((1-methyl-3-(trifluoromethyl)-1H-pyrazol-5-yl)methoxy)-1-benzothiophen-3-yl)acetic acid] | 105 |
| COC(=O)Cc1csc2c(Cl)c(OCc3ccc(C(F)(F)F)nc3C)cc(Cl)c12 [Example 29, Methyl(4,7-dichloro-6-((2-methyl-6-(trifluoromethyl)pyridin-3-yl)methoxy)-1-benzothiophen-3-yl)acetate] | 88.1 |
| Cc1nc(C(F)(F)F)ccc1COc1cc(Cl)c2c(CC(=O)O)csc2c1Cl [Example 30, (4,7-Dichloro-6-((2-methyl-6-(trifluoromethyl)pyridin-3-yl)methoxy)-1-benzothiophen-3-yl)acetic acid] | 106 |
| Cc1ccc(COc2cc(C(F)(F)F)c3c(CC(=O)O)csc3c2)c(C)n1 [Example 31, (6-((2,6-Dimethylpyridin-3-yl)methoxy)-4-(trifluoromethyl)-1-benzothiophen-3-yl)acetic acid] | 103 |
